Data on 10 molecules can be found in EP1254122B1, “NOVEL 3-SUBSTITUTED 1,2,4-BENZOTRIAZINES, A METHOD FOR THEIR PRODUCTION AND THE USE THEREOF” (UFZ-UMWELTFORSCHUNGSZENTRUM Leipzig-Halle GmbH, priority 1999, dated 2001).

Common to all, as to type: cell-based
The subject of one assay is HeLa. Put plainly: Inhibition of cell growth, HeLa cells. As to conditions: 37°C, three days, evaluated by microscope against untreated reference cells; for IC50: Homo sapiens, 72 h, read-out: IC50-Wert (50%ige Hemmung des Zellwachstums in µg/ml). The method, then:
(§1) Zu je 1 ml einer entsprechenden Zellstammlösung werden die zu testenden Substanzen in wäßriger steriler Lösung in Konzentrationsschritten von je 2-50 µg gespritzt. Die Testkammern werden anschließend zusammen mit einer unbehandelten Referenzkammer bei 37°C drei Tage entwickelt.
(§2) Die Auswertung erfolgt mittels Mikroskop. Es werden Zellvermehrung bzw. Zellzerstörung (Zustand der Zellmembran sowie des Zellkern) mit unbehandelten Referenzzellen verglichen. Tabelle: IC50-Wert (50%ige Hemmung des Zellwachstums in µg/ml) ausgewählter Substanzen der Formel I

For the next assay, the system named is Peritoneal carcinom. Put plainly: Inhibition of cell growth, peritoneal carcinoma cells. As to conditions: 37°C, three days, evaluated by microscope against untreated reference cells; for IC50: 72 h, read-out: IC50-Wert (50%ige Hemmung des Zellwachstums in µg/ml). The method, then:
as §1, §2

Another assay relates to Hep2. Put plainly: Inhibition of cell growth, Hep2 cells. The following applies: 37°C, three days, evaluated by microscope against untreated reference cells; for IC50: Homo sapiens, HEp-2, 72 h, read-out: IC50-Wert (50%ige Hemmung des Zellwachstums in µg/ml). The method, then:
as §1, §2

In a further assay the test system is permanenten Zellkulturen. Put plainly: Inhibition of cell growth, permanent cell cultures (overall statement). As to conditions: result in words; HeLa-, Hep2-, Peritonealcarcinom- and Pleurocarcinomzellen. How it is done:
as §1, §2
Die erfindungsgemäßen Verbindungen hemmen sämtlich das Zellwachstum von permanenten Zellkulturen wie z.B. von HeLa-, Hep2-Zellen, von Peritonealcarcinom- sowie von Pleurocarcinomzellen.

The next assay has as its system Pleurocarcinom. Put plainly: Inhibition of cell growth, pleural carcinoma cells. As to conditions: 72 h, 37°C, three days, evaluated by microscope against untreated reference cells, read-out: IC50-Wert (50%ige Hemmung des Zellwachstums in µg/ml). The method, then: as §1, §2

In brackets after ≈: the same amount, converted by molar mass.

With “3-(D-galacto-Tetritol-1-yl)-1,2,4-benzotriazin [Verbindung i]”, in the assay with HeLa, the “IC50-Wert (50%ige Hemmung des Zellwachstums in µg/ml)” value amounted to 400 µg/mL.
On to `COC(=O)Cc1nnc2ccc(Cl)cc2n1` [Verbindung b, 3-(Methoxy-carbonylmethyl)-6-chlor-benzo-1,2,4-triazin], for which the “IC50-Wert (50%ige Hemmung des Zellwachstums in µg/ml)” value in the assay on HeLa was 160 µg/mL (≈ 673 µM); in the assay with Peritoneal carcinom it was 150 µg/mL (≈ 631 µM); with Hep2 it was 120 µg/mL (≈ 505 µM).
`COC(=O)Cc1nnc2cccc(Cl)c2n1` [Verbindung c, 3-(Methoxy-carbonylmethyl)-5-chlor-benzo-1,2,4-triazin]: the “IC50-Wert (50%ige Hemmung des Zellwachstums in µg/ml)” value in the assay with HeLa was 8 to 16 µg/mL; in the assay on Peritoneal carcinom, 12 µg/mL (≈ 50.5 µM); in the assay with Hep2 it was 16 µg/mL (≈ 67.3 µM). Also, in the assay with permanenten Zellkulturen, the “Hemmung des Zellwachstums (Wirksamkeit)” value was “bevorzugte Wirksamkeit”.
In the case of `COC(=O)Cc1nnc2ccc(Cl)c(N)c2n1` [Verbindung d, 3-(Methoxy-carbonylmethyl)-5-amino-6-chlor-benzo-1,2,4-triazin], the results for the “IC50-Wert (50%ige Hemmung des Zellwachstums in µg/ml)” value in the assay on HeLa and with Peritoneal carcinom were 50 µg/mL (≈ 198 µM) and 25 to 30 µg/mL, respectively.
As to `COC(=O)Cc1nnc2ccccc2n1` [Verbindung e, 3-(Methoxy-carbonylmethyl)-1,2,4-benzotriazin], the IC50 stood at 180 µg/mL (≈ 886 µM) with HeLa, 500 µg/mL (≈ 2460 µM) in the assay on Pleurocarcinom, 350 µg/mL (≈ 1720 µM) with Peritoneal carcinom and 100 µg/mL (≈ 492 µM) in the assay with Hep2.
The matching figures for `CCOC(=O)Cc1nnc2ccccc2n1` [Verbindung f, 3-(Ethoxy-carbonylmethyl)-1,2,4-benzotriazin]: 378 µg/mL (≈ 1740 µM), 500 µg/mL (≈ 2300 µM), 180 µg/mL (≈ 829 µM) and 190 to 200 µg/mL (≈ 875 to 921 µM).
On to `CCOC(=O)Cc1nnc2ccc(Br)cc2n1` [Verbindung g, 3-(Ethoxy-carbonylmethyl)-6-brom-benzo-1,2,4-triazin], for which the “IC50-Wert (50%ige Hemmung des Zellwachstums in µg/ml)” value with HeLa is 8 to 16 µg/mL; in the assay with Peritoneal carcinom, 35 µg/mL (≈ 118 µM); in the assay on Hep2, 8 to 16 µg/mL. For the same molecule, in the assay on permanenten Zellkulturen, the “Hemmung des Zellwachstums (Wirksamkeit)” value is listed as “bevorzugte Wirksamkeit”.
Take `OC[C@@H](O)[C@@H](O)[C@H](O)c1nnc2ccccc2n1` [Verbindung h, 3-(D-arabino-Tetritol-1-yl)-1,2,4-benzotriazin]: the IC50 in the assay on HeLa and in the assay on Hep2 was 150 µg/mL (≈ 597 µM) in each case.
Consider `OC[C@@H](O)[C@@H](O)[C@H](O)c1nnc2ccc(Cl)cc2n1` [Verbindung k, 3-(D-arabino-Tetritol-1-yl)-6-chlor-benzo-1,2,4-triazin], for which, in the assay on HeLa, the “IC50-Wert (50%ige Hemmung des Zellwachstums in µg/ml)” value was 250 µg/mL (≈ 875 µM).
Consider `CC(C)NC(=O)Cc1nnc2ccccc2n1` [Verbindung l, 3-(Isopropylamino-carbonylmethyl)-1,2,4-benzotriazin], for which the IC50 was 86 µg/mL (≈ 373 µM) in the assay on HeLa, 170 µg/mL (≈ 738 µM) in the assay with Peritoneal carcinom and 100 µg/mL (≈ 434 µM) in the assay with Hep2. Further, the “Hemmung des Zellwachstums (Wirksamkeit)” value in the assay on permanenten Zellkulturen was “bevorzugte Wirksamkeit”.
